Results as given in patent US9603364B2 (Dow AgroSciences LLC, priority 2013, dated 2017).

Legend:
Assay in all cases: General post-emergent herbicidal activity, foliar application
Type in all cases: in vivo
[1] = test system: Helianthus annuus L. (sunflower, common); conditions: for GR80 Value HELAN: calculated by probit analysis, dose for 80% visual injury, may be extrapolated; for pest or weed control at 70 g/ha: 70 g ai/ha; for pest or weed control at 140 g/ha: 140 g ai/ha; for pest or weed control at 280 g/ha: 280 g ai/ha
Outline: (§1)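 Compounds in acetone/DMSO (97:3) were diluted into aqueous spray containing isopropyl alcohol, Atplus 411F crop oil and Triton X-155, then applied post-emergence to foliage at a top rate plus 1/2× to 1/16× serial dilutions. Injury was scored visually (0–100%) after 14 days in a sub-irrigated greenhouse versus untreated plants. GR20/GR50/GR80 were derived by probit analysis, with some GR80 values extrapolated from curve slope.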

[2] = test system: Chenopodium album L. (lambsquarters, common); conditions: for GR80 Value CHEAL: calculated by probit analysis, dose for 80% visual injury, may be extrapolated; for pest or weed control at 70 g/ha: 70 g ai/ha; for pest or weed control at 140 g/ha: 140 g ai/ha; for pest or weed control at 280 g/ha: 280 g ai/ha
Outline: as §1

[3] = test system: Euphorbia heterophylla L. (poinsettia, wild); conditions: for GR80 Value EPHHL: calculated by probit analysis, dose for 80% visual injury, may be extrapolated; for pest or weed control at 70 g/ha: 70 g ai/ha; for pest or weed control at 140 g/ha: 140 g ai/ha; for pest or weed control at 280 g/ha: 280 g ai/ha
Outline: as §1

[4] = test system: Echinochloa crus-galli (L.) Beauv. (barnyardgrass); conditions: for GR80 Value ECHCG: calculated by probit analysis, dose for 80% visual injury, may be extrapolated; for pest or weed control at 70 g/ha: 70 g ai/ha; for pest or weed control at 140 g/ha: 140 g ai/ha; for pest or weed control at 280 g/ha: 280 g ai/ha
Outline: as §1

[5] = test system: Amaranthus retroflexus L. (pigweed, redroot); conditions: for GR80 Value AMARE: calculated by probit analysis, dose for 80% visual injury, may be extrapolated; for pest or weed control at 70 g/ha: 70 g ai/ha; for pest or weed control at 140 g/ha: 140 g ai/ha; for pest or weed control at 280 g/ha: 280 g ai/ha
Outline: as §1

[6] = test system: Viola tricolor L. (pansy); conditions: for GR80 Value VIOTR: calculated by probit analysis, dose for 80% visual injury, may be extrapolated; for pest or weed control at 70 g/ha: 70 g ai/ha; for pest or weed control at 140 g/ha: 140 g ai/ha
Outline: as §1

Zea mays L. (corn) = conditions: 336 h, scored after 14 days, read-out: % Visual Growth Reduction ZEAMX; for plant injury at 70 g/ha: 70 g ai/ha; for plant injury at 140 g/ha: 140 g ai/ha; for plant injury at 280 g/ha: 280 g ai/ha
Outline: (§2)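 Injury rated visually 14 days after treatment on a 0 (none) to 100% (complete kill) scale against untreated plants; greenhouse-grown, sub-irrigated to avoid wash-off. Foliar spray in aqueous acetone/DMSO with isopropanol, crop oil concentrate and Triton X-155, at a highest rate and 2-fold serial dilutions down to 1/16×.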

Oryza sativa L. (rice) = conditions: Oryza sativa, 336 h, scored after 14 days, read-out: % Visual Growth Reduction ORYSA; for plant injury at 70 g/ha: 70 g ai/ha; for plant injury at 140 g/ha: 140 g ai/ha; for plant injury at 280 g/ha: 280 g ai/ha
Outline: as §2

[7] = Helianthus annuus, 336 h, foliar post-emergent, scored after 14 days, read-out: % Visual Growth Reduction HELAN
[8] = Chenopodium album, 336 h, foliar post-emergent, scored after 14 days, read-out: % Visual Growth Reduction CHEAL
[9] = Euphorbia heterophylla, 336 h, foliar post-emergent, scored after 14 days, read-out: % Visual Growth Reduction EPHHL
[10] = Echinochloa crus-galli, 336 h, foliar post-emergent, scored after 14 days, read-out: % Visual Growth Reduction ECHCG
[11] = Amaranthus retroflexus, 336 h, foliar post-emergent, scored after 14 days, read-out: % Visual Growth Reduction AMARE
[12] = Viola tricolor, 336 h, foliar post-emergent, scored after 14 days, read-out: % Visual Growth Reduction VIOTR

## COC(=O)c1nc(CF)cc(N)c1Cl [Compound F26, methyl 4-amino-3-chloro-6-(fluoromethyl)picolinate]
[1]; Helianthus annuus, 336 h, 37 g ai/ha, foliar post-emergent, scored after 14 days, read-out: % Visual Growth Reduction HELAN
  pest or weed control at 37 g/ha: 70%
[1]; Helianthus annuus, 336 h, 74 g ai/ha, foliar post-emergent, scored after 14 days, read-out: % Visual Growth Reduction HELAN
  pest or weed control at 74 g/ha: 90%
[1]; Helianthus annuus, 336 h, 148 g ai/ha, foliar post-emergent, scored after 14 days, read-out: % Visual Growth Reduction HELAN
  pest or weed control at 148 g/ha: 90%
[1]
  GR80 Value HELAN: 48.3 g ai/ha
[2]; Chenopodium album, 336 h, 37 g ai/ha, foliar post-emergent, scored after 14 days, read-out: % Visual Growth Reduction CHEAL
  pest or weed control at 37 g/ha: 90%
[2]; Chenopodium album, 336 h, 74 g ai/ha, foliar post-emergent, scored after 14 days, read-out: % Visual Growth Reduction CHEAL
  pest or weed control at 74 g/ha: 90%
[2]; Chenopodium album, 336 h, 148 g ai/ha, foliar post-emergent, scored after 14 days, read-out: % Visual Growth Reduction CHEAL
  pest or weed control at 148 g/ha: 90%
[2]
  GR80 Value CHEAL: 29 g ai/ha
[3]; Euphorbia heterophylla, 336 h, 37 g ai/ha, foliar post-emergent, scored after 14 days, read-out: % Visual Growth Reduction EPHHL
  pest or weed control at 37 g/ha: 90%
[3]; Euphorbia heterophylla, 336 h, 74 g ai/ha, foliar post-emergent, scored after 14 days, read-out: % Visual Growth Reduction EPHHL
  pest or weed control at 74 g/ha: 100%
[3]; Euphorbia heterophylla, 336 h, 148 g ai/ha, foliar post-emergent, scored after 14 days, read-out: % Visual Growth Reduction EPHHL
  pest or weed control at 148 g/ha: 100%
[3]
  GR80 Value EPHHL: 38.8 g ai/ha
[4]; Echinochloa crus-galli, 336 h, 37 g ai/ha, foliar post-emergent, scored after 14 days, read-out: % Visual Growth Reduction ECHCG
  pest or weed control at 37 g/ha: 0%
[4]; Echinochloa crus-galli, 336 h, 74 g ai/ha, foliar post-emergent, scored after 14 days, read-out: % Visual Growth Reduction ECHCG
  pest or weed control at 74 g/ha: 0%
[4]; Echinochloa crus-galli, 336 h, 148 g ai/ha, foliar post-emergent, scored after 14 days, read-out: % Visual Growth Reduction ECHCG
  pest or weed control at 148 g/ha: 20%
[4]
  GR80 Value ECHCG: >148 g ai/ha
[5]; Amaranthus retroflexus, 336 h, 37 g ai/ha, foliar post-emergent, scored after 14 days, read-out: % Visual Growth Reduction AMARE
  pest or weed control at 37 g/ha: 0%
[5]; Amaranthus retroflexus, 336 h, 74 g ai/ha, foliar post-emergent, scored after 14 days, read-out: % Visual Growth Reduction AMARE
  pest or weed control at 74 g/ha: 80%
[5]; Amaranthus retroflexus, 336 h, 148 g ai/ha, foliar post-emergent, scored after 14 days, read-out: % Visual Growth Reduction AMARE
  pest or weed control at 148 g/ha: 90%
[5]
  GR80 Value AMARE: 104 g ai/ha
[6]; Viola tricolor, 336 h, 37 g ai/ha, foliar post-emergent, scored after 14 days, read-out: % Visual Growth Reduction VIOTR
  pest or weed control at 37 g/ha: 10%
[6]; Viola tricolor, 336 h, 74 g ai/ha, foliar post-emergent, scored after 14 days, read-out: % Visual Growth Reduction VIOTR
  pest or weed control at 74 g/ha: 15%
[6]; Viola tricolor, 336 h, 148 g ai/ha, foliar post-emergent, scored after 14 days, read-out: % Visual Growth Reduction VIOTR
  pest or weed control at 148 g/ha: 70%
[6]
  GR80 Value VIOTR: 223 g ai/ha
Zea mays L. (corn); 37 g ai/ha
  plant injury at 37 g/ha: 0%
Zea mays L. (corn); 74 g ai/ha
  plant injury at 74 g/ha: 0%
Zea mays L. (corn); 148 g ai/ha
  plant injury at 148 g/ha: 10%
Oryza sativa L. (rice); 37 g ai/ha
  plant injury at 37 g/ha: 0%
Oryza sativa L. (rice); 74 g ai/ha
  plant injury at 74 g/ha: 0%
Oryza sativa L. (rice); 148 g ai/ha
  plant injury at 148 g/ha: 0%

## Nc1cc(C(F)F)nc(C(=O)O)c1Cl [Compound F27]
[1]; Helianthus annuus, 336 h, 35 g ai/ha, foliar post-emergent, scored after 14 days, read-out: % Visual Growth Reduction HELAN
  pest or weed control at 35 g/ha: 90%
[1]; [7]
  pest or weed control at 70 g/ha: 100%
  pest or weed control at 140 g/ha: 100%
  pest or weed control at 280 g/ha: 100%
[1]
  GR80 Value HELAN: <17.5 g ai/ha
[2]; Chenopodium album, 336 h, 35 g ai/ha, foliar post-emergent, scored after 14 days, read-out: % Visual Growth Reduction CHEAL
  pest or weed control at 35 g/ha: 100%
[2]; [8]
  pest or weed control at 70 g/ha: 100%
  pest or weed control at 140 g/ha: 100%
  pest or weed control at 280 g/ha: 100%
[2]
  GR80 Value CHEAL: <17.5 g ai/ha
[3]; Euphorbia heterophylla, 336 h, 35 g ai/ha, foliar post-emergent, scored after 14 days, read-out: % Visual Growth Reduction EPHHL
  pest or weed control at 35 g/ha: 90%
[3]; [9]
  pest or weed control at 70 g/ha: 100%
  pest or weed control at 140 g/ha: 100%
  pest or weed control at 280 g/ha: 100%
[3]
  GR80 Value EPHHL: <17.5 g ai/ha
[4]; Echinochloa crus-galli, 336 h, 35 g ai/ha, foliar post-emergent, scored after 14 days, read-out: % Visual Growth Reduction ECHCG
  pest or weed control at 35 g/ha: 0%
[4]; [10]
  pest or weed control at 70 g/ha: 65%
  pest or weed control at 140 g/ha: 80%
  pest or weed control at 280 g/ha: 80%
[4]
  GR80 Value ECHCG: 187 g ai/ha
[5]; Amaranthus retroflexus, 336 h, 35 g ai/ha, foliar post-emergent, scored after 14 days, read-out: % Visual Growth Reduction AMARE
  pest or weed control at 35 g/ha: 90%
[5]; [11]
  pest or weed control at 70 g/ha: 90%
  pest or weed control at 140 g/ha: 100%
  pest or weed control at 280 g/ha: 100%
[5]
  GR80 Value AMARE: 17.5 g ai/ha
[6]; Viola tricolor, 336 h, 35 g ai/ha, foliar post-emergent, scored after 14 days, read-out: % Visual Growth Reduction VIOTR
  pest or weed control at 35 g/ha: 80%
[6]; [12]
  pest or weed control at 70 g/ha: 100%
  pest or weed control at 140 g/ha: 100%
[6]
  GR80 Value VIOTR: 59.2 g ai/ha
Zea mays L. (corn); 35 g ai/ha
  plant injury at 35 g/ha: 20%
Zea mays L. (corn)
  plant injury at 70 g/ha: 50%
  plant injury at 140 g/ha: 60%
  plant injury at 280 g/ha: 60%
Oryza sativa L. (rice)
  plant injury at 70 g/ha: 13%
  plant injury at 140 g/ha: 15%
  plant injury at 280 g/ha: 20%

## COC(=O)c1nc(C(F)CF)cc(N)c1Cl (stereo not drawn) [Compound F28, methyl 4-amino-3-chloro-6-(1,2-difluoroethyl)picolinate]
[1]; [7]
  pest or weed control at 70 g/ha: 80%
  pest or weed control at 140 g/ha: 90%
  pest or weed control at 280 g/ha: 95%
[1]
  GR80 Value HELAN: 52.9 g ai/ha
[2]; [8]
  pest or weed control at 70 g/ha: 90%
  pest or weed control at 140 g/ha: 80%
  pest or weed control at 280 g/ha: 90%
[2]
  GR80 Value CHEAL: 17.5 g ai/ha
[3]; [9]
  pest or weed control at 70 g/ha: 80%
  pest or weed control at 140 g/ha: 100%
  pest or weed control at 280 g/ha: 100%
[3]
  GR80 Value EPHHL: 73 g ai/ha
[4]; [10]
  pest or weed control at 70 g/ha: 0%
  pest or weed control at 140 g/ha: 0%
  pest or weed control at 280 g/ha: 0%
[4]
  GR80 Value ECHCG: >280 g ai/ha
[5]; [11]
  pest or weed control at 70 g/ha: 80%
  pest or weed control at 140 g/ha: 100%
  pest or weed control at 280 g/ha: 100%
[5]
  GR80 Value AMARE: 66.4 g ai/ha
[6]; [12]
  pest or weed control at 70 g/ha: 15%
  pest or weed control at 140 g/ha: 75%
[6]; Viola tricolor, 336 h, 280 g ai/ha, foliar post-emergent, scored after 14 days, read-out: % Visual Growth Reduction VIOTR
  pest or weed control at 280 g/ha: 90%
[6]
  GR80 Value VIOTR: 197 g ai/ha
Zea mays L. (corn)
  plant injury at 70 g/ha: 10%
  plant injury at 140 g/ha: 10%
  plant injury at 280 g/ha: 10%
Oryza sativa L. (rice)
  plant injury at 70 g/ha: 0%
  plant injury at 140 g/ha: 0%
  plant injury at 280 g/ha: 0%
